Tests used:
[1] = tested on: smartweed; assay: Test F postemergence; assay type: in vivo, Polygonum persicaria; settings: 500 g ai/ha, scale 0 to 100
Description: (§1) Seeds of plant species selected from corn (Zea mays), soybean (Glycine max), velvetleaf (Abutilon theophrasti), lambsquarters (Chenopodium album), wild poinsettia (Euphorbia heterophylla), pigweed, palmer (palmer pigweed, Amaranthus palmeri), common waterhemp (Amaranthus rudis), surinam grass (Brachiaria decumbens), large crabgrass (Digitaria sanguinalis), crabgrass, Brazil (Brazilian crabgrass, Digitaria horizontalis), fall panicum (Panicum dichotomiflorum), giant foxtail (Setaria faberii), green foxtail (Setaria viridis), goosegrass (Eleusine indica), johnsongrass (Sorghum halepense), common ragweed (Ambrosia elation), barnyardgrass (Echinochloa crus-galli), southern sandbur (Cenchrus echinatus), arrowleaf sida (Sida rhombifolia), Italian ryegrass (Lolium multiflorum), dayflower, VA (Virginia (VA) dayflower, Commelina virginica), field bindweed (Convolvulus arvensis), cocklebur (common cocklebur, Xanthium strumarium), morningglory (Ipomoea coccinea), nightshade (eastern black nightshade, Solanum ptycanthum), kochia (Kochia scoparia), yellow nutsedge (Cyperus esculentus), and hairy beggarticks (Bidens pilosa), were planted into a silt loam soil and treated preemergence with test chemicals formulated in a non-phytotoxic solvent mixture which included a surfactant.
(§2) At the same time, plants from these crop and weed species and also horseweed (Canada horseweed, Conyza canadensis), smartweed (ladysthumb smartweed, Polygonum persicaria), waterhemp_RES1, (ALS & Triazine resistant common waterhemp, Amaranthus rudis), and waterhemp_RES2, (ALS & HPPD resistant common waterhemp, Amaranthus rudis) were treated with postemergence applications of test chemicals formulated in the same manner. Plants ranged in height from 2 to 18 cm for postemergence treatments (1- to 4-leaf stage). Treated plants and controls were maintained in a greenhouse for 14 to 21 days, after which time all species were compared to controls and visually evaluated. Plant response ratings, summarized in Table F, are based on a scale of 0 to 100 where 0 is no effect and 100 is complete control. A dash (-) response means no test result.

[2] = tested on: fall panicum; assay: Test F postemergence; assay type: in vivo, Panicum dichotomiflorum; settings: scale 0 to 100
Description: as §1, §2

[3] = tested on: ryegrass, Italian; assay: Test D preemergence; assay type: in vivo, Lolium multiflorum; settings: scale 0 to 100
How it was run: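 Postemergence activity was tested on plants at the 1- to 4-leaf stage (2–18 cm) grown in peat-based medium, and preemergence activity on seeds in silt loam, with chemicals in a surfactant-containing non-phytotoxic solvent. Controlled-environment growth lasted 14–21 days before visual 0–100 scoring.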

## CCOc1cc(C(=O)NC(C)C)nn1Cc1ccnc(C(F)(F)F)c1 [Compound 188]
[1]
  Plant response rating, Smartweed: 95
[2]; Postemergence, 31 g ai/ha
  Plant response rating, Fall Panicum: 20
[2]; Postemergence, 125 g ai/ha
  Plant response rating, Fall Panicum: 55
[2]; Postemergence, 250 g ai/ha
  Plant response rating, Fall Panicum: 75
[2]; postemergence, 62 g ai/ha
  Plant response rating, Fall Panicum: 20
[2]; postemergence, 500 g ai/ha
  Plant response rating, Fall Panicum: 90
[3]; 62 g ai/ha
  Plant response rating, Ryegrass, Italian: 75
[3]; 125 g ai/ha
  Plant response rating, Ryegrass, Italian: 85
[3]; 250 g ai/ha
  Plant response rating, Ryegrass, Italian: 95

Source: patent US20150105252A1, “SUBSTITUTED PYRAZOLES AS HERBICIDES” (E I DU PONT DE NEMOURS AND COMPANY, priority 2013, published 2015)
